Data reported in patent US20230047825A1, “ANTIMICROBIAL PEPTIDES” (priority 2019, published 2023).
Converted amounts (≈) assume the structure as drawn. Like-named read-outs stand apart in the source and are kept apart here.

Assays:
Assay in all cases: microbe, parasite or virus in culture
[1] = system: Staphylococcus aureus ATCC 19636 (Smith)
Experimental: (§1) The S. aureus strains ATCC 29213, ATCC 19636, ATCC 33591 (MRSA), BAA-1556 (MRSA USA 300) were obtained from the American Type Culture Collection (ATCC). […] The species identity was confirmed with 16S rRNA analysis.
(§2) Two broth mediums were used, Mueller Hinton Broth and RPMI 1640+5% fetal bovine serum. Test substances were evaluated in 11-point titrations and performed in duplicate.
(§3) The direct colony suspension method was used to prepare inoculated broth. Isolated colonies were taken from an 18-24 h culture plate. Optical density measurements (OD620nm) were used to estimate the bacterial density. […] The stock solutions were diluted by 2-fold serial titrations with their respective vehicles for a total of 11 concentrations.
(§4) A 4 μL aliquot of each dilution was added to 196 μL of broth medium seeded with the organism in wells of a sterilized 96 well polypropylene plate (Nunc™ 249949) using aluminum foil as cover. The final bacterial count was 2 to 8×10^5 CFU/mL. […] The final test article concentration range was 32 to 0.0313 μg/mL.
(§5) Each test substance dilution was evaluated in duplicate on one test occasion. […] Plates were incubated at 35-37° C. for 18 h. The test plates were visually examined and each well was visually scored for growth or complete inhibition of growth. The MIC value was recorded.

[2] = system: Staphylococcus aureus ATCC 29213; settings: for MIC: Staphylococcus aureus; for susceptibility category (CLSI M100 interpretive criteria) / MIC, antibiotic susceptibility: ATCC 29213
Experimental: as §1, §2, §3, §4, §5

[3] = system: Staphylococcus aureus ATCC 33591 (MRSA); settings: for MIC: Staphylococcus aureus
Experimental: as §1, §2, §3, §4, §5

[4] = system: Staphylococcus aureus ATCC BAA-1556 (USA300, MRSA)
Experimental: as §1, §2, §3, §4, §5

[5] = system: Staphylococcus aureus VRS-2 (VanA, VRSA); set-up: MIC, antibiotic susceptibility: unit not given beside the values; settings: for MIC: Staphylococcus aureus, VRSA; for MIC, antibiotic susceptibility: unit not given
Experimental: as §1, §2, §3, §4, §5

[6] = Staphylococcus aureus, ATCC19636, 18 h, read-out: MIC, antibiotic susceptibility
[7] = ATCC29213, 18 h, read-out: MIC, antibiotic susceptibility, ATCC 29213, CLSI M7-A10, unit inferred
[8] = ATCC33591|MRSA, 18 h, read-out: MIC, antibiotic susceptibility, ATCC 33591, CLSI M7-A10, unit inferred
[9] = Staphylococcus aureus, ATCCBAA1556|BAA1556|MRSA|USA300, 18 h, read-out: MIC, antibiotic susceptibility
[10] = 18 h, read-out: MIC, antibiotic susceptibility, VRS-2, CLSI M7-A10, unit inferred

MIC [1, 6] [µg/mL]	MIC [2, 7] [µg/mL]	MIC [3, 8] [µg/mL]	MIC [4, 9] [µg/mL]	MIC [5, 10] [µg/mL]	Compound	susceptibility category (CLSI M100 interpretive criteria) ([1]; ATCC 19636 (Smith))	susceptibility category (CLSI M100 interpretive criteria) [2]	susceptibility category (CLSI M100 interpretive criteria) ([3]; ATCC 33591)	susceptibility category (CLSI M100 interpretive criteria) ([4]; BAA-1556)	susceptibility category (CLSI M100 interpretive criteria) ([5]; VRS-2)	other results
2 (≈ 4.16 µM)	2 to 4 (≈ 4.16 to 8.32 µM)	> 64	16 to 64 (≈ 33.3 to 133 µM)	> 64	CO/N=C(\C(=O)N[C@@H]1C(=O)N2C(C(=O)[O-])=C(C[N+]3(C)CCCC3)CS[C@H]12)c1csc(N)n1 [Cefepime]						
4 (≈ 7.21 µM)	4 (≈ 7.21 µM)	> 64	≥ 64	> 64	CO/N=C(\C(=O)N[C@@H]1C(=O)N2C(C(=O)O)=C(CSc3nc(=O)c(=O)[nH]n3C)CS[C@H]12)c1csc(N)n1 [Ceftriaxone]						
0.125 (≈ 0.294 µM)	0.125 (≈ 0.294 µM)	> 64	> 64	> 64	CCC[C@@H]1C[C@@H](C(=O)N[C@@H]([C@H]2O[C@H](SC)[C@H](O)[C@@H](O)[C@H]2O)[C@H](C)Cl)N(C)C1 [Clindamycin]	S	S	R	R	R	
0.25 (≈ 0.154 µM)	0.125 to 0.5 (≈ 0.0771 to 0.309 µM)	0.5 (≈ 0.309 µM)	0.25 (≈ 0.154 µM)	0.25 (≈ 0.154 µM)	CCCCCCCCCC(=O)N[C@@H](Cc1c[nH]c2ccccc12)C(=O)N[C@H](CC(N)=O)C(=O)N[C@@H](CC(=O)O)C(=O)N[C@@H]1C(=O)NCC(=O)N[C@@H](CCCN)C(=O)N[C@@H](CC(=O)O)C(=O)N[C@H](C)C(=O)N[C@@H](CC(=O)O)C(=O)NCC(=O)N[C@H](CO)C(=O)N[C@@H]([C@H](C)CC(=O)O)C(=O)N[C@@H](CC(=O)c2ccccc2N)C(=O)O[C@@H]1C [Daptomycin]	S	S	S	S	S	
0.25 to 1 (≈ 0.341 to 1.36 µM)	0.25 to 1 (≈ 0.341 to 1.36 µM)	> 64	> 64	> 64	CC[C@H]1OC(=O)[C@H](C)[C@@H](O[C@H]2C[C@@](C)(OC)[C@@H](O)[C@H](C)O2)[C@H](C)[C@@H](O[C@@H]2O[C@H](C)C[C@H](N(C)C)[C@H]2O)[C@](C)(O)C[C@@H](C)C(=O)[C@H](C)[C@@H](O)[C@]1(C)O [Erythromycin]	S-I	S-I	R	R	R	
≤ 0.016	0.016 to 0.031 (≈ 0.0534 to 0.104 µM)	≥ 16	0.125 to 0.25 (≈ 0.418 to 0.835 µM)	> 16	C[C@@H](O)[C@H]1C(=O)N2C(C(=O)O)=C(SCCN=CN)C[C@H]12 [Imipenem]						
0.125 (≈ 0.346 µM)	0.125 to 0.25 (≈ 0.346 to 0.692 µM)	0.25 (≈ 0.692 µM)	4 to 8 (≈ 11.1 to 22.1 µM)	32 (≈ 88.6 µM)	C[C@H]1COc2c(N3CCN(C)CC3)c(F)cc3c(=O)c(C(=O)O)cn1c23 [Levofloxacin]	S	S	S	R	R	
2 to 4 (≈ 5.93 to 11.9 µM)	2 to 4 (≈ 5.93 to 11.9 µM)	0.5 to 1 (≈ 1.48 to 2.96 µM)	2 (≈ 5.93 µM)	2 (≈ 5.93 µM)	CC(=O)NC[C@H]1CN(c2ccc(N3CCOCC3)c(F)c2)C(=O)O1 [Linezolid]	S	S	S	S	S	MIC ([1]; ATCC 19636 (Smith), MHB): 2 µg/mL (≈ 5.93 µM); MIC ([2]; ATCC29213, ATCC 29213, MHB): 4 µg/mL (≈ 11.9 µM); MIC ([2]; ATCC29213, ATCC 29213, RPMI + 5% FBS): 2 µg/mL; MIC ([3]; ATCC 33591, MHB): 2 µg/mL (≈ 5.93 µM); MIC ([3]; ATCC 33591, RPMI + 5% FBS): 1 µg/mL; MIC ([4]; ATCC BAA-1556, MHB): 2 µg/mL (≈ 5.93 µM); MIC ([5]; VRS-2, MHB): 2 µg/mL (≈ 5.93 µM); MIC ([5]; VRS-2, RPMI + 5% FBS): 1 µg/mL
	0.0625 (≈ 0.163 µM)				C[C@@H](O)[C@H]1C(=O)N2C(C(=O)O)=C(S[C@@H]3CN[C@H](C(=O)N(C)C)C3)[C@H](C)[C@H]12 [Meropenem]						
1 (≈ 2 µM)	0.25 to 2 (≈ 0.499 to 3.99 µM)	1 to 2 (≈ 2 to 3.99 µM)	> 64	1 to 2 (≈ 2 to 3.99 µM)	C/C(=C\C(=O)OCCCCCCCCC(=O)O)C[C@@H]1OC[C@H](C[C@@H]2O[C@H]2[C@@H](C)[C@H](C)O)[C@@H](O)[C@H]1O [Mupirocin]						
					Gentamicin	S	S	S	S	R	MIC, antibiotic susceptibility ([1]; ATCC 19636 (Smith), CLSI M7-A10, unit inferred): 0.25 µg/mL; MIC, antibiotic susceptibility ([2]; CLSI M7-A10, unit inferred): 0.25 µg/mL; MIC, antibiotic susceptibility ([3]; ATCC 33591, CLSI M7-A10, unit not given, in µg/mL): 0.25-1; MIC, antibiotic susceptibility ([4]; BAA-1556, CLSI M7-A10, unit not given, in µg/mL (unit assumed)): 0.25-0.5; MIC, antibiotic susceptibility ([5]; VRS-2, CLSI M7-A10, in µg/mL (unit assumed)): 32-64
					Teicoplanin		S				MIC, antibiotic susceptibility ([2]; CLSI M7-A10, unit inferred): 0.25 µg/mL
					Trimethoprim/sulfamethoxazole	S	S	S	S	R	MIC, antibiotic susceptibility ([5]; VRS-2, CLSI M7-A10): >8/152

Compound	MIC [1, 6] [µg/mL]	MIC [2, 7] [µg/mL]	MIC [3, 8] [µg/mL]	MIC [4, 9] [µg/mL]	MIC [5, 10] [µg/mL]	susceptibility category (CLSI M100 interpretive criteria) ([1]; ATCC 19636 (Smith))	susceptibility category (CLSI M100 interpretive criteria) [2]	susceptibility category (CLSI M100 interpretive criteria) ([3]; ATCC 33591)	susceptibility category (CLSI M100 interpretive criteria) ([4]; BAA-1556)	susceptibility category (CLSI M100 interpretive criteria) ([5]; VRS-2)	other results
Cc1onc(-c2ccccc2)c1C(=O)N[C@@H]1C(=O)N2[C@@H]1SC(C)(C)[C@@H]2C(=O)O [Oxacillin]	0.25 (≈ 0.623 µM)	0.25 to 0.5 (≈ 0.623 to 1.25 µM)	> 64	64 (≈ 159 µM)	> 64	S	S	R	R	R	
CN(C)c1cc(NC(=O)CNC(C)(C)C)c(O)c2c1C[C@H]1C[C@H]3[C@H](N(C)C)C(O)=C(C(N)=O)C(=O)[C@@]3(O)C(O)=C1C2=O [Tigecycline]	0.125 to 0.25 (≈ 0.213 to 0.427 µM)			0.25 (≈ 0.427 µM)							MIC ([2]; ATCC29213, 18 h, read-out: MIC, antibiotic susceptibility): 0.125 to 0.25 µg/mL (≈ 0.213 to 0.427 µM); MIC ([3]; ATCC33591|MRSA, 18 h, read-out: MIC, antibiotic susceptibility): 0.25 to 0.5 µg/mL (≈ 0.427 to 0.854 µM); MIC ([5]; 18 h, read-out: MIC, antibiotic susceptibility): 0.25 µg/mL (≈ 0.427 µM)
